Laboratory results as given in ChEMBL document CHEMBL2150913, “Novel Benzoisoxazole as Partial Agonist of the 5-HT4 Receptor: Patent Highlight” (ACS Med Chem Lett, 2012).

What was measured:
[1] = Cytotoxicity against human THLE cells assessed as cell health and cell depletion; assay type: cell-based
Brain = assay: AUC in rat brain at 5 mg/kg, sc; assay type: ADME, organism-based; parameters: dose 5 mg/kg, route subcutaneous; conditions: in vivo
Plasma = assay: AUC in rat plasma at 5 mg/kg, sc; assay type: ADME, organism-based; parameters: dose 5 mg/kg, route subcutaneous; conditions: in vivo

AUC (Brain): 1790 ng·h/g
AUC (Plasma): 1760 ng·h/g
SMILES: OC1(CN2CCC(COc3noc4cccc(O[C@@H]5CCOC5)c34)CC2)CCOCC1 [PF-04995274]
Activity [1]: 300 µM
